Laboratory results from patent US9468209B2, “Method for eradicating weeds with derivatives of 3-acetyl-5-sec-butyl-4-hydroxy-3-pyrrolin-2-one” (priority 2012, dated 2016).

Assays:
Test in all cases: Leaf piece damage test
Format in all cases: in vivo
Parameters in all cases: key: 4: The leaf completely dead; 3: Two third of the leaf withered; 2: One half of the leaf withered; 1: Only edge of the leaf withered; 0: Not damage at all
Conditions in all cases: 50 μg/mL, 4 days
[1] = system: Ambrosia artemisiifolia
Method: (§1) Compounds 7, 14, 15, 16, 40, 45, 48 and 53 were dissolved individually in small amount of methanol, and diluted with distilled water to concentration of 50 μg/mL. Methanol water solution and pure water were used as control. A piece of 5 mm leaf was taken from the second leaf of weed sample and was treated with the solution three times. 5 pieces of the leaf were prepared for each treatment. The damage data were collected 4 days later. The measurement of damage level is described in the Table 9.
(§2) The measurement of the plant damage was calculated by the formula: Damage Index=Σ(damage level×number of plants)×100/4/number of plants in each treatment.

[2] = system: Carpesium abrotanoides
Method: as §1, §2

[3] = system: Cayratia japonica
Method: as §1, §2

[4] = system: Commelina communis
Method: as §1, §2

[5] = system: Common polypogon
Method: as §1, §2

[6] = system: Crisium setosum
Method: as §1, §2

[7] = system: Cyperus difformis
Method: as §1, §2

[8] = system: Equal alopecurus
Method: as §1, §2

[9] = system: Erigeron annuus
Method: as §1, §2

[10] = system: Eupatorium adenophorum
Method: as §1, §2

[11] = system: Fimbristylis miliacea
Method: as §1, §2

[12] = system: Goose grass
Method: as §1, §2

[13] = system: Green foxtail (Setaria viridis)
Method: as §1, §2

[14] = system: Humulus scandens
Method: as §1, §2

[15] = system: Malvaceae
Method: as §1, §2

[16] = system: Parthenocissus tricuspidata
Method: as §1, §2

[17] = system: Perilla frutescens
Method: as §1, §2

[18] = system: Polygonum hydropiper
Method: as §1, §2

[19] = system: Polygonum lapathifolium
Method: as §1, §2

[20] = system: Rumex dentatus
Method: as §1, §2

[21] = system: Sonchus asper
Method: as §1, §2

[22] = system: Veronica didyma
Method: as §1, §2

| Compound | Damage level [1] | Damage level [2] | Damage level [3] | Damage level [4] | Damage level [5] | Damage level [6] | Damage level [7] | Damage level [8] | Damage level [9] | Damage level [10] | Damage level [11] | Damage level [12] | Damage level [13] | Damage level [14] | Damage level [15] | Damage level [16] | Damage level [17] | Damage level [18] | Damage level [19] | Damage level [20] | also measured |
| --- | --- | --- | --- | --- | --- | --- | --- | --- | --- | --- | --- | --- | --- | --- | --- | --- | --- | --- | --- | --- | --- |
| CCCCC1NC(=O)C(C(C)=O)=C1O (stereo not shown) [Compound 14] | 3 | 2 | 2 | 2 | 3 | 3 | 3 | 3 | 3 | 3 | 2 | 3 | 3 | 2 | 2 | 2 | 2 | 2 | 2 | 2 | Damage level [21]: 3; Damage level [22]: 3 |
| CCCCCC1NC(=O)C(C(C)=O)=C1O (stereo not shown) [Compound 15] | 2 | 2 | 2 | 2 | 3 | 3 | 3 | 3 | 4 | 4 | 2 | 3 | 4 | 2 | 2 | 3 | 3 | 2 | 2 | 2 | Damage level [21]: 3; Damage level [22]: 2 |
| CCCCCCC1NC(=O)C(C(C)=O)=C1O (stereo not shown) [Compound 16] | 3 | 2 | 2 | 3 | 3 | 3 | 3 | 3 | 3 | 4 | 3 | 3 | 3 | 3 | 2 | 2 | 2 | 3 | 2 | 2 | Damage level [21]: 3; Damage level [22]: 2 |
| CCCC(Cl)C1NC(=O)C(C(C)=O)=C1O (stereo not shown) [Compound 40] | 3 | 3 | 2 | 3 | 3 | 3 | 3 | 3 | 3 | 4 | 3 | 4 | 3 | 3 | 2 | 2 | 2 | 2 | 2 | 2 | Damage level [21]: 3; Damage level [22]: 2 |
| CCC(C)C1NC(=O)C(C(=O)CCF)=C1O (stereo not shown) [Compound 44] | 4 | 3 | 3 | 2 | 4 | 3 | 3 | 3 | 4 | 4 | 2 | 3 | 4 | 2 | 2 | 3 | 3 | 3 | 2 | 3 | Damage level [21]: 3; Damage level [22]: 3 |
| CCC(C)C1NC(=O)C(C(=O)CCc2cc(Cl)cc(Cl)c2)=C1O (stereo not shown) [Compound 48] | 3 | 4 | 3 | 4 | 4 | 4 | 4 | 4 | 4 | 4 | 3 | 3 | 4 | 3 | 2 | 3 | 2 | 3 | 2 | 3 | Damage level [21]: 4; Damage level [22]: 3 |
| CCCC(C#N)C1NC(=O)C(=C(C)O)C1=O (stereo not shown) [Compound 53] | 3 | 2 | 3 | 3 | 4 | 4 | 3 | 4 | 3 | 4 | 2 | 4 | 3 | 2 | 3 | 3 | 2 | 3 | 3 | 2 | Damage level [21]: 3; Damage level [22]: 3 |
